According to US20250281554A1, “COMPOSITION FOR IMPROVING DRUG SENSITIVITY OF ANTIBACTERIAL DRUG TO METHICILLIN-RESISTANT STAPHYLOCOCCUS AUREUS (MRSA), COMPOSITION FOR TREATING OR PREVENTING MRSA INFECTION, AND COMPOSITION FOR REDUCING VIRULENCE OF MRSA” (priority 2021, published 2025):
≈ marks a conversion by molar mass, not a printed value.

Key:
Format in all cases: cell-based, methicillin-resistant Staphylococcus aureus
[1] = test system: MRSA2007-13 SAm1-206 (mgrA mutation and femA mutation); assay: drug sensitivity test (MIC method), SAm1-206; details: dry plate, cultured 20 hours, unit assumed
Description: (§1) Next, the drug sensitivities of a wild-type strain (MRSA2007-13 strain) and mutated strains having a mutation in both mgrA and femA (SAm1-201, SAm1-206, SAm1-210) to antibacterial drugs were measured in a drug sensitivity test (MIC method). The test method will be explained. A bacterial solution (a wild-type strain or a mutant) precultured overnight was diluted with sterile physiological saline to reach OD600≈0.26, and 25 μL of the bacterial solution was added to 12 mL of Mueller-Hinton liquid medium (Eiken Chemical Co., Ltd.). To each well of a dry plate (Eiken Chemical Co., Ltd.), […] of the bacterial solution was added, and cultured for 20 hours. After culturing, the MIC was determined based on determination criteria for the dry plate.

[2] = test system: wild-type strain (MRSA2007-13 strain); assay: drug sensitivity test (MIC method), wild-type strain; details: MRSA2007-13 WT; for MIC, WT: dry plate, cultured 20 hours, in µg/mL (unit assumed); for drug sensitivity rating (MIC method), WT: key: resistance (R); sensitivity(S)
Description: as §1

[3] = test system: wild-type strain (MRSA2007-13 strain); assay: drug sensitivity test (disk method), wild-type strain; details: MRSA2007-13 WT, 37° C., 24 hours; for drug sensitivity rating (disk method), WT: Mueller-Hinton II agar; for diameter of inhibitory zone, WT: number in brackets; for drug sensitivity rating (disk method), WT: key: resistance (R); sensitivity(S)
Description: (§2) The drug sensitivities of a wild-type strain (MRSA2007-13 strain) and a mutant (SAm1-201) to β-lactam antibacterial drugs were measured in a drug sensitivity test (disk method). The test method will be explained. The wild-type strain (MRSA2007-13 strain) or the mutant (SAm1-201) was streaked on LB-Agar, and cultured at 37° C. overnight. The following day, single colonies were collected, added to 5 mL of Trypticase soy broth, and subjected to shaking culture at 37° C. overnight. After culturing, the bacterial solution was adjusted to McFarland turbidity No. 0.5, and evenly smeared on Mueller-Hinton II agar medium with a sterile cotton swab. After disposing sensitivity disks on the agar medium, culture was performed at 37° C. for 24 hours, and the diameter of an inhibitory zone formed around each disk was measured in millimeters.

[4] = test system: mutant (SAm1-201) of MRSA2007-13; assay: drug sensitivity test (disk method), mutant SAm1-201; details: MRSA2007-13 SAm1-201, 37° C., 24 hours; for drug sensitivity rating (disk method), SAm1-201: Mueller-Hinton II agar; for diameter of inhibitory zone, SAm1-201: number in brackets; for drug sensitivity rating (disk method), SAm1-201: key: resistance (R); sensitivity(S)
Description: as §2

[5] = test system: MRSA2007-13 SAm1-201 (mgrA mutation and femA mutation); assay: drug sensitivity test (MIC method), SAm1-201; details: for MIC, SAm1-201: dry plate, cultured 20 hours
Description: as §1

[6] = test system: MRSA2007-13 SAm1-210 (mgrA mutation and femA mutation); assay: drug sensitivity test (MIC method), SAm1-210; details: dry plate, cultured 20 hours, unit assumed
Description: as §1

[7] = test system: wild-type strain (MRSA2007-13 strain); assay: growth-inhibitory effect of phage and oxacillin added from the beginning, turbidimetry; details: WT MRSA, ϕSA012 ≈1.0×10^7 pfu/mL (MOI≈0.1), oxacillin sodium 16 μg/mL, 37° C.
Description: The test method is shown in the following. This test was performed by means of turbidimetry. A bacterial solution (wild-type strain (MRSA2007-13 strain)) precultured overnight was diluted with LB-Broth to reach OD600≈1.0, and further 10-fold diluted (˜ 1.0×10^8 cfu/mL).
The plate was set in a Sunrise Rainbow Thermo RC (Tecan Japan Co., Ltd.), and shaking culture was performed at 37° C. for 90 hours while absorbance values at a wavelength of 590 nm were measured every 15 minutes.

| Compound | MIC, SAm1-206 [1] | MIC, WT [2] | drug sensitivity rating (disk method), WT [3] | diameter of inhibitory zone, WT [3] | drug sensitivity rating (disk method), SAm1-201 [4] | diameter of inhibitory zone, SAm1-201 [4] | MIC, SAm1-201 [5] | MIC, SAm1-210 [6] | MIC, SAm1-201 ([5]; unit assumed) | bacterial growth inhibition (turbidity) over 90 hours [7] | drug sensitivity rating (MIC method), WT ([2]; symbol in brackets) | drug sensitivity rating (MIC method), SAm1-201 ([5]; symbol in brackets) |
| --- | --- | --- | --- | --- | --- | --- | --- | --- | --- | --- | --- | --- |
| C[C@@H](O)[C@H]1C(=O)N2C(C(=O)O)=C(SCCN=CN)C[C@H]12 [IPM, imipenem] | 1 µg/mL (≈ 3.34 µM) | 64 | R | 9 millimeters | S | 44 millimeters | 0.125> | 0.125 µg/mL (≈ 0.418 µM) | – | – | – | – |
| CC1=C(C(=O)O)N2C(=O)[C@@H](NC(=O)[C@H](N)c3ccccc3)[C@H]2SC1 [CEX, cephalexin] | – | – | R | – | S | 29 millimeters | – | – | – | – | – | – |
| C[C@@H](O)[C@H]1C(=O)N2C(C(=O)O)=C([C@H]3CCCO3)S[C@H]12 [FRPM, faropenem] | 0.25 µg/mL (≈ 0.876 µM) | >128 | R | – | S | ≥ 50 millimeters | 0.125> | 0.125 µg/mL (≈ 0.438 µM) | – | – | – | – |
| CC/C=C(\C(=O)N[C@@H]1C(=O)N2C(C(=O)O)=C(COC(N)=O)CS[C@H]12)c1csc(N)n1 [CFPN, cefcapene] | < 0.5 µg/mL | >2 | – | – | – | – | – | < 0.5 µg/mL | < 0.5 µg/mL | – | – | – |
| CO/N=C(\C(=O)N[C@@H]1C(=O)N2C(C(=O)O)=C(/C=C\c3scnc3C)CS[C@H]12)c1csc(N)n1 [CDTR, cefditoren] | < 0.5 µg/mL | >2 | – | – | – | – | – | < 0.5 µg/mL | < 0.5 µg/mL | – | – | – |
| CN(C)[C@@H]1C(O)=C(C(N)=O)C(=O)[C@@]2(O)C(O)=C3C(=O)c4c(O)cccc4[C@@](C)(O)[C@H]3[C@H](O)[C@@H]12 [OTC, oxytetracycline] | 128 µg/mL (≈ 278 µM) | 128 | – | – | – | – | – | 128 µg/mL (≈ 278 µM) | 64 µg/mL (≈ 139 µM) | – | – | – |
| penicillin [PCG] | 2 µg/mL | >16 | – | – | – | – | – | 4 µg/mL | 2 µg/mL | – | – | – |
| COCC1=C(C(=O)O)N2C(=O)[C@@H](NC(=O)/C(=N\OC)c3csc(N)n3)[C@H]2SC1 [CPDX, cefpodoxime] | – | – | R | – | S | 28 millimeters | – | – | – | – | – | – |
| C[C@H]1c2cccc(O)c2C(=O)C2=C(O)[C@]3(O)C(=O)C(C(N)=O)=C(O)[C@@H](N(C)C)[C@@H]3[C@@H](O)[C@@H]21 [DOXY, doxycycline] | 8 µg/mL (≈ 18 µM) | 8 | – | – | – | – | – | 4 µg/mL (≈ 9 µM) | 4 µg/mL (≈ 9 µM) | – | – | – |
| C[C@@H](O)[C@H]1C(=O)N2C(C(=O)O)=C(S[C@@H]3CN[C@H](C(=O)N(C)C)C3)[C@H](C)[C@H]12 [MEPE, meropenem] | 4 µg/mL (≈ 10.4 µM) | 32 | R | 7 millimeters | S | 28 millimeters | 0.125> | 0.125 µg/mL (≈ 0.326 µM) | – | – | – | – |
| Cc1onc(-c2ccccc2)c1C(=O)N[C@@H]1C(=O)N2[C@@H]1SC(C)(C)[C@@H]2C(=O)O [MPIPC, oxacillin] | 4 µg/mL (≈ 9.96 µM) | – | R | – | S | 35 millimeters | – | 0.125 µg/mL (≈ 0.311 µM) | 0.125 µg/mL (≈ 0.311 µM) | failed in inhibiting bacterial growth | – | – |
| Cc1nnc(SCC2=C(C(=O)O)N3C(=O)[C@@H](NC(=O)Cn4cnnn4)[C@H]3SC2)s1 [CEZ, cefazolin] | 1 µg/mL (≈ 2.2 µM) | >128 | – | – | – | – | – | 0.25 µg/mL (≈ 0.55 µM) | – | – | (R) | (S) |
| CC1(C)S[C@@H]2[C@H](NC(=O)[C@H](N)c3ccc(O)cc3)C(=O)N2[C@H]1C(=O)O [AMPC, amoxicillin] | 16 µg/mL (≈ 43.8 µM) | 64 | R | – | S | 34 millimeters | – | 2 µg/mL (≈ 5.47 µM) | 8 µg/mL (≈ 21.9 µM) | – | – | – |
| CCN1CCN(c2cc3c(cc2F)c(=O)c(C(=O)O)cn3C2CC2)CC1 [ERFX, enrofloxacin] | 64 µg/mL (≈ 178 µM) | 128 | – | – | – | – | – | 32 µg/mL (≈ 89 µM) | 64 µg/mL (≈ 178 µM) | – | – | – |
